Source: ChEMBL document CHEMBL4828757, “Further hit optimization of 6-(trifluoromethyl)pyrimidin-2-amine based TLR8 modulators: Synthesis, biological evaluation and structure-activity relationships” (Eur J Med Chem, 2021)
Each block holds one compound with its values, some of them ahead of it. Calls of active or inactive are those of the source. The calls are words filed in the database; no cut-off is given here.

Experiments:
Assay type in all cases: cell-based
Toll-like receptor 8 = molecular target: T1, Toll-like receptor 8 (Homo sapiens, UniProt Q9NR97); experiment: (§1) Negative modulator activity at human TLR8 expressed in HEK-Blue hTLR8 cells assessed as inhibition of TL8-506 stimulated NF-kappaB activation preincubated with compound for 1 hr followed by TL8-506 stimulation for 24 hrs by SEAP-based colorimetric assay
T1 sequence (Q9NR97 whole entry): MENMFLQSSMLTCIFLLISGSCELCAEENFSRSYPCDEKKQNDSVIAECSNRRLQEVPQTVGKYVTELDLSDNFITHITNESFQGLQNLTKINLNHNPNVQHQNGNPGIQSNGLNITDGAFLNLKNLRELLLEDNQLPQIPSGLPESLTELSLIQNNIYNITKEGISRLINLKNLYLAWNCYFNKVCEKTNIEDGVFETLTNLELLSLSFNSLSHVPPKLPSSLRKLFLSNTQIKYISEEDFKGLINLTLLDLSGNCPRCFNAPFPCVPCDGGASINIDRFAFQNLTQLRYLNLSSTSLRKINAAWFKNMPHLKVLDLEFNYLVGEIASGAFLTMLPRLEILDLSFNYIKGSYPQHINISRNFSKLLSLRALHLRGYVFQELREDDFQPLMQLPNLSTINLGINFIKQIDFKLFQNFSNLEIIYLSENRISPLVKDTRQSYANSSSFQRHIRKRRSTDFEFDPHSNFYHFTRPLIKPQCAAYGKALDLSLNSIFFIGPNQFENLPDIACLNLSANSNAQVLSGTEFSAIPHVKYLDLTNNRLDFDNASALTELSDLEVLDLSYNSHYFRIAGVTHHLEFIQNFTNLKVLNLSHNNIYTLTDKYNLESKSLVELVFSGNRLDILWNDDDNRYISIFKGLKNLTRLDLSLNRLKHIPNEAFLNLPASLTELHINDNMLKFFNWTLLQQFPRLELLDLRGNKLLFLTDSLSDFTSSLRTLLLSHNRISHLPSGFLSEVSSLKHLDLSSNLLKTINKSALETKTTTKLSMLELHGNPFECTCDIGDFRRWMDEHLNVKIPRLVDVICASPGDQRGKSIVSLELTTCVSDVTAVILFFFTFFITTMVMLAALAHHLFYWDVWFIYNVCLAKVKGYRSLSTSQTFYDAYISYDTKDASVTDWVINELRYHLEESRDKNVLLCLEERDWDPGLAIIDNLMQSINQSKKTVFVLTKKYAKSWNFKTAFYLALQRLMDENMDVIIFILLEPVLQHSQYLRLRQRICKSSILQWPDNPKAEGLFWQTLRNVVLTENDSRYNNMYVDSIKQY

[1] = Cytotoxicity against human HEK-Blue hTLR8 cells assessed as reduction in cell viability at 50 uM by MTT assay; settings: for Activity: hek-blue htlr8, 50 µM
[2] = molecular target: T2, Toll-like receptor 8 (Homo sapiens) (UniProt Q9NR97); experiment: Negative modulator activity at human TLR8 expressed in HEK-Blue hTLR8 cells assessed as inhibition of TL8-506 stimulated NF-kappaB activation at 25 uM preincubated with compound for 1 hr followed by TL8-506 stimulation for 24 hrs by SEAP-based colorimetric assay; settings: filed as modulator, time 25.0 hrs
T2 sequence (whole entry): T1 sequence (Q9NR97 whole entry)

[3] = molecular target: T2, Toll-like receptor 8 (Homo sapiens); experiment: as §1; settings: time 25.0 hrs
[4] = Cytotoxicity against human PBMC cells assessed as reduction in cell viability up to 50 uM incubated for 48 hrs by MTS assay
[5] = Cytotoxicity against human PBMC cells assessed as reduction in cell viability at 10 uM incubated for 48 hrs by MTS assay
[6] = molecular target: T2, Toll-like receptor 8 (Homo sapiens); experiment: Negative modulator activity at human TLR8 expressed in HEK-Blue hTLR8 cells assessed as inhibition of TL8-506 stimulated NF-kappaB activation at 10 uM preincubated with compound for 1 hr followed by TL8-506 stimulation for 24 hrs by SEAP-based colorimetric assay; settings: filed as modulator, time 25.0 hrs

Compound: Oc1cccc(CNc2nc(-c3ccco3)cc(C(F)(F)F)n2)c1
IC50 (Toll-like receptor 8; read-out: IC50): 23 µM

Compound: NCc1ccc(CNc2nc(-c3ccco3)cc(C(F)(F)F)n2)cc1
Activity [1]: Toxic | inhibition [2]: 75%

Compound: OCc1cccc(CNc2nc(-c3ccco3)cc(C(F)(F)F)n2)c1
IC50 (Toll-like receptor 8; hek-blue htlr8): Not Active

Compound: FC(F)(F)c1cc(-c2ccco2)nc(Nc2ccccc2)n1
IC50 (Toll-like receptor 8; read-out: IC50): 77 µM

Compound: Cc1ccc(-c2cc(C(F)(F)F)nc(NCc3cccs3)n2)cc1
inhibition ([3]; filed as modulator): Active

Compound: FC(F)(F)c1cc(-c2ccco2)ncn1
inhibition [3]: inactive

Compound: NCc1cccc(CNc2nc(-c3ccco3)cc(C(F)(F)F)n2)c1
Activity [1]: Toxic | inhibition [2]: 50%

Compound: FC(F)(F)c1cc(-c2ccco2)nc(NC2CCCC2)n1
inhibition [3]: inactive

Compound: OCc1ccc(CNc2nc(-c3ccco3)cc(C(F)(F)F)n2)cc1
Activity [4]: Non-Toxic

Compound: FC(F)(F)c1cc(-c2ccco2)nc(NC2CCCCC2)n1
inhibition [3]: inactive

Compound: FC(F)(F)c1cc(C2CCCCC2)nc(NCc2cccs2)n1
inhibition [3]: inactive

Compound: COc1ccc(CNc2nc(-c3ccco3)cc(C(F)(F)F)n2)cc1
IC50 (Toll-like receptor 8; hek-blue htlr8): Not Active

Compound: CS(=O)(=O)c1nc(-c2ccccc2)cc(C(F)(F)F)n1
IC50 (Toll-like receptor 8; hek-blue htlr8): Not Active

Compound: Oc1cccc(CNc2nc(-c3ccccc3)cc(C(F)(F)F)n2)c1
IC50 (Toll-like receptor 8; hek-blue htlr8): Not Active

Compound: Cc1cc(-c2ccco2)nc(NCc2cccs2)n1
inhibition ([3]; filed as modulator): Active

Compound: COc1cccc(CNc2nc(-c3ccco3)cc(C(F)(F)F)n2)c1
IC50 (Toll-like receptor 8; hek-blue htlr8): Not Active

Compound: Oc1cccc(CNc2nc(C3CCCCC3)cc(C(F)(F)F)n2)c1
IC50 (Toll-like receptor 8; read-out: IC50): 22 µM

Compound: O=C(O)c1ccc(CNc2nc(-c3ccco3)cc(C(F)(F)F)n2)cc1
IC50 (Toll-like receptor 8; hek-blue htlr8): Not Active

Compound: Oc1ccc(CNc2nc(-c3ccco3)cc(C(F)(F)F)n2)cc1
IC50 (Toll-like receptor 8; read-out: IC50): 11 µM

Compound: Cc1cc(C(F)(F)F)nc(NCc2cccs2)n1
inhibition [3]: inactive

Compound: c1coc(-c2ccnc(NCc3cccs3)n2)c1
inhibition [3]: inactive

Compound: COc1ccc(-c2cc(C(F)(F)F)nc(NCc3cccs3)n2)cc1
inhibition ([3]; filed as modulator): Active

Compound: CS(=O)(=O)c1nc(-c2ccco2)cc(C(F)(F)F)n1
Activity [5]: Toxic

Compound: FC(F)(F)c1ccnc(NCc2cccs2)n1
inhibition [3]: inactive

Compound: FC(F)(F)c1cc(-c2ccccc2)nc(NCc2cccs2)n1
cytotoxicity at 50 µM ([1]; HEK-Blue hTLR8 cells, read-out: INH): 40% | inhibition [2]: 60% | inhibition [6]: 50%

Continued, values first:

inhibition [3]: inactive
Compound: CCCCNc1nc(-c2ccco2)cc(C(F)(F)F)n1

IC50 (Toll-like receptor 8; read-out: IC50): > 100 µM
Compound: FC(F)(F)c1cc(-c2ccco2)nc(NCc2ccccc2)n1

inhibition [3]: inactive
Compound: C=CCNc1nc(-c2ccco2)cc(C(F)(F)F)n1

inhibition [3]: inactive
Compound: CC(C)Nc1nc(-c2ccco2)cc(C(F)(F)F)n1

inhibition [3]: inactive
Compound: FC(F)(F)c1cc(-c2ccco2)nc(NCCN2CCOCC2)n1

inhibition [3]: inactive
Compound: FC(F)(F)c1cc(-c2ccco2)nc(NC2CC2)n1

inhibition [3]: inactive
Compound: OCCOCCNc1nc(-c2ccco2)cc(C(F)(F)F)n1

inhibition [3]: inactive
Compound: FC(F)(F)c1cc(-c2ccco2)nc(NCC2CC2)n1

inhibition [3]: inactive
Compound: FC(F)(F)c1cc(-c2ccco2)nc(NC2CCC2)n1

inhibition [3]: inactive
Compound: OCCNc1nc(-c2ccco2)cc(C(F)(F)F)n1

inhibition [3]: inactive
Compound: CCCCCCNc1nc(-c2ccco2)cc(C(F)(F)F)n1

inhibition [3]: inactive
Compound: CCNc1nc(-c2ccco2)cc(C(F)(F)F)n1

IC50 (Toll-like receptor 8; read-out: IC50): > 100 µM
Compound: FC(F)(F)c1cc(-c2ccco2)nc(NCCc2ccccc2)n1

inhibition [3]: inactive
Compound: CCCNc1nc(-c2ccco2)cc(C(F)(F)F)n1

inhibition [3]: inactive
Compound: CC(C)CNc1nc(-c2ccco2)cc(C(F)(F)F)n1
